We go through 14 compounds from patent US20220073521A1, “PYRIMIDINE AND FIVE-MEMBERED NITROGEN HETEROCYCLE DERIVATIVE, PREPARATION METHOD THEREFOR, AND MEDICAL USES THEREOF” (Tuojie Biotech (Shanghai) Co., Ltd., priority 2018, published 2022).

Where two headings read alike, the source gives them in different places.

The subject of one data set is KYSE-520 cells. Put plainly: KYSE-520 cell proliferation experiment (CellTiter-Glo, 7 days). It counts as cell-based. The settings on record: Homo sapiens. How it is done: The treated cell plate was incubated at 37° C., 5% CO2 for 7 days. CellTiter-Glo (Promega, G7573) was used to determine the number of viable cells in each well of the treated plate. 100 μL of the detection reagent was added to each well, and the plate was incubated at room temperature for 10 minutes. Then, the […] in each well was measured with Envision plate reader (PerkinElmer). […] The IC50 value was further calculated as the compound concentration required for 50% proliferation inhibition in the best-fit curve with […].

Another data set relates to p-ERK in KYSE-520 cells. The data set can be described thus: Determination of p-ERK in KYSE-520 cells (HTRF). It counts as cell-based. How it is done: KYSE-520 cells (Nanjing Cobioer Biosciences CO., Ltd.) in the logarithmic growth phase were inoculated (30,000 cells/well) in 1640 medium containing 10% of FBS, and adhered in a 96-well plate overnight (5% CO2, 37° C.). […] The cell culture was stopped with cell lysate. The level of phosphorylated ERK in KYSE-520 cells was determined by a method based on homogeneous time-resolved fluorescence HTRF (Cisbio, 64ERKPEG). The fluorescence values (Ex337 nm/Em625/665 nm) were read on the compatible HTRF reader (MD SpectraMax).

In data set [1] the target is T1, SHP2 wild-type phosphatase (recombinantly expressed full-length SHP2, aa 1-593) (Homo sapiens, UniProt Q06124).
T1 sequence (Q06124 1-593): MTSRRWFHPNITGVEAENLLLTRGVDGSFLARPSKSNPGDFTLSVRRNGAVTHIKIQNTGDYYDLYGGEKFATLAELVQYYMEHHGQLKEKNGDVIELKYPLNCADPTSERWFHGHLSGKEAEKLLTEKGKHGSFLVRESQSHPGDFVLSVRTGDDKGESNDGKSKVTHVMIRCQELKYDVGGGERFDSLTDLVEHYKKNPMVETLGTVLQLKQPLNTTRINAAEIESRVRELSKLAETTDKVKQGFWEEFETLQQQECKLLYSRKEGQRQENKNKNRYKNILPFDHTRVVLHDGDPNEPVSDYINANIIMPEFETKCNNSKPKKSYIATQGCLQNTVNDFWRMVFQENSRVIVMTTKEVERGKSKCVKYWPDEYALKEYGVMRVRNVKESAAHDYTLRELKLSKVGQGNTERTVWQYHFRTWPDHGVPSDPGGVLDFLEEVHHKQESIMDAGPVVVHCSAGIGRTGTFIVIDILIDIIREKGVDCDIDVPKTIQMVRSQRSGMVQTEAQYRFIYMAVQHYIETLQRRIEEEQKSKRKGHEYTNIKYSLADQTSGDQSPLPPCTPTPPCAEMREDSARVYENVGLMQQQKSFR
Put plainly: In vitro activity on SHP2 wild-type phosphatase (DiFMUP fluorescence).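 Also: enzyme preincubated at room temperature, then DiFMUP reaction run at room temperature and halted with SDS, potency derived from a logistic curve fit.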 As to conditions: wild-type full-length SHP2, activated polypeptide IRS1 0.5 nM, DiFMUP 30 μM.
Method: 0.2 nM recombinantly expressed full-length SHP2 (aa 1-593), 0.5 nM activated polypeptide IRS1 with double phosphorylation sites (sequence: H2N-LN(pY)IDLDLY(dPEG8)LST(pY)ASINFQK-amide) and a series of concentrations of the test compound (final concentrations were 1 μM, 0.3 μM, 0.1 μM, 0.03 μM, 0.01 μM, 0.003 μM, 0.001 μM, 0.0003 μM, 0.0001 μM, 0.00003 μM) were added to the phosphatase reaction solution (60 mM HEPES, pH 7.5 0.005% Brij-35, 75 mM NaCl, 75 mM KCl, 1 mM EDTA, 5 mM DTT). The reaction solution was shaked (350 rpm) at room temperature for 30 minutes. The reaction substrate DiFMUP with a final concentration of 30 μM was added, and the reaction solution was reacted at room temperature for 30 minutes. The phosphatase reaction was stopped by adding 5 μL of stop solution (60 mM HEPES, pH 7.5, 0.2% SDS). Ex358 nm/Em455 fluorescence value was read on the fluorescence plate reader MD SpectraMax.
The IC50 value of the compound was calculated using the four-parameter logit method. In the following formula, x represents the logarithmic form of the compound concentration, and F(x) represents the effect value (the inhibition rate of cell proliferation under the given concentration condition): F(x)=((A−D)/(1+((x/C)^B)))+D. A, B, C and D are four parameters. Different concentrations correspond to different inhibition rates, based on which an inverse curve was plotted, and the IC50 of the inhibitor was calculated from the curve. The IC50 of the compound was calculated with Primer premier 6.0.

Data set [2] is described as follows: Pharmacokinetics assay in rats. It counts as in vivo, SD rats. As to conditions: rat; for AUC: read-out: Area under curve AUC; for half-life: read-out: Half-life T1/2 (converted). The protocol:
Rats were used as test animals. The drug concentration in plasma at different time points was determined by LC/MS/MS method after intravenous administration or intragastrical administration of the compound of the present invention to rats. The pharmacokinetic behavior of the compound of the present invention was studied and evaluated in rats.
The atropisomer with a RT of 1.495 minutes in Examples 3 and 4, compounds of Example 17, Example 41 and Example 43.
Healthy male SD rats (6-8 weeks old), 3 rats per group.
Intravenous administration: A certain amount of the test compound was weighed, to which 10% by volume of N,N-dimethylacetamide, 33% by volume of triethylene glycol and 57% by volume of water were added to prepare a 1 mg/mL colorless, clear and transparent solution;
Intragastrical administration: A certain amount of the test compound was weighed, to which 0.5% by mass of hypromellose, 0.1% by volume of Tween 80 and 99.4% by volume of water were added to prepare a 1 mg/mL white suspension.
After an overnight fast, the SD rats were intravenously administered the test compound at an administration dose of 1 mg/kg, or intragastrically administered the test compound at an administration dose of 5 mg/kg.
The rats were intravenously administered the compound of the present invention. 0.2 ml of blood was taken from the jugular vein at 0.083, 0.25, 0.5, 1, 2, 4, 8 and 24 hours after the administration. The samples were placed in tubes containing EDTA-K2, and centrifuged at 4000 rpm and 4° C. for 5 minutes to separate the blood plasma. The plasma samples were stored at −75° C.
Or, the rats were intragastrically administered the compound of the present invention. 0.2 ml of blood was taken from the jugular vein at 0.25, 0.5, 1, 2, 4, 8 and 24 hours after the administration. The samples were placed in tubes containing EDTA-K2, and centrifuged at 4000 rpm and 4° C. for 5 minutes to separate the blood plasma. The plasma samples were stored at −75° C.
The content of the test compound in the plasma of rat after intragastrical administration of the test compound at different concentrations was determined: 50 μL of rat plasma at each time after administration was taken, to which 200 μL of a solution (50 ng/mL) of internal standard dexamethasone in acetonitrile was added. The plasma was vortex-mixed for 30 seconds, and centrifuged at 4700 rpm and 4° C. for 15 minutes. The supernatant was taken from the plasma samples, and a three-fold dilution was carried out by adding water. 2.0 μL of the supernatant was used for LC/MS/MS analysis.

Regarding `Nc1nc(N2CCC3(CCC[C@H]3N)CC2)n2ccnc2c1Sc1cccnc1C(F)(F)F` [Example 23, (R)-8-(7-Amino-8-((2-(trifluoromethyl)pyridin-3-yl)thio)imidazo[1,2-c]pyrimidin-5-yl)-8-azaspiro[4.5]decan-1-amine], the IC50 was 51.6 nM in the data set on KYSE-520 cells; 23.2 nM in the data set on p-ERK in KYSE-520 cells (Homo sapiens, KYSE-520, 2 h); 2.3 nM in data set [1].
In the case of `Nc1nc(N2CCC3(CCC[C@H]3N)CC2)n2ccnc2c1Sc1ccnc(F)c1Cl` [Example 22, (R)-8-(7-Amino-8-((3-chloro-2-fluoropyridin-4-yl)thio)imidazo[1,2-c]pyrimidin-5-yl)-8-azaspiro[4.5]decan-1-amine], the IC50 in the data set with KYSE-520 cells was determined as 102 nM; in the data set on p-ERK in KYSE-520 cells (Homo sapiens, KYSE-520, 2 h), 24.5 nM; in data set [1], 2.1 nM.
Taken in the same sequence, the figures for `C[C@@H]1OCC2(CCN(c3nc(N)c(Sc4ccnc(F)c4Cl)c4nccn34)CC2)[C@@H]1N` [Example 26, (3S,4S)-8-(7-Amino-8-((3-chloro-2-fluoropyridin-4-yl)thio)imidazo[1,2-c]pyrimidin-5-yl)-3-methyl-2-oxa-8-azaspiro[4.5]decan-4-amine] were 62 nM, 11.6 nM and 2.7 nM.
On the same counts, the results for `Nc1nccc(Sc2cnc(N3CCC4(CC3)Cc3ccccc3[C@H]4N)n3ccnc23)c1Cl` [Example 32, (S)-1′-(8-((2-Amino-3-chloropyridin-4-yl)thio)imidazo[1,2-c]pyrimidin-5-yl)-1,3-dihydrospiro[indene-2,4′-piperidin]-1-amine] are 12.9 nM, 2.7 nM and 1 nM.
As for `CC1(O)CN(c2nccc(Sc3cnc(N4CCC5(CC4)Cc4ncccc4[C@H]5N)n4ccnc34)c2Cl)C1` [Example 39, (S)-1-(4-((5-(5-Amino-5,7-dihydrospiro[cyclopenta[b]pyridine-6,4′-piperidin]-1′-yl)imidazo[1,2-c]pyrimidin-8-yl)thio)-3-chloropyridin-2-yl)-3-methylazetidin-3-ol], the IC50 in the data set on KYSE-520 cells worked out at 24.1 nM; with p-ERK in KYSE-520 cells (2 hours), 10.3 nM; in the data set on p-ERK in KYSE-520 cells (Homo sapiens, KYSE-520, 2 h), 7.9 nM; in data set [1] it was 1 nM.
Regarding `CNc1nccc(Sc2cnc(N3CCC4(CC3)Cc3ncccc3[C@H]4N)n3ccnc23)c1F` [Example 37, (S)-1′-(8-((3-Fluoro-2-(methylamino)pyridin-4-yl)thio)imidazo[1,2-c]pyrimidin-5-yl)-5,7-dihydrospiro[cyclopenta[b]pyridine-6,4′-piperidin]-5-amine], the concentration for half-maximal inhibition (IC50) came out at 37 nM in the data set with KYSE-520 cells; 8.6 nM in the data set with p-ERK in KYSE-520 cells (Homo sapiens, KYSE-520, 2 h); 4 nM in data set [1].
`N[C@@H]1c2cccnc2CC12CCN(c1ncc(Sc3ccnc(N4CCOCC4)c3Cl)c3nccn13)CC2` [Example 40, (S)-1′-(8-((3-Chloro-2-morpholinopyridin-4-yl)thio)imidazo[1,2-c]pyrimidin-5-yl)-5,7-dihydrospiro[cyclopenta[b]pyridine-6,4′-piperidin]-5-amine]: the half-inhibitory concentration (IC50) in the data set on KYSE-520 cells worked out at 27.3 nM; with p-ERK in KYSE-520 cells (Homo sapiens, KYSE-520, 2 h) it was 6.5 nM; in data set [1] it was 1.4 nM.
Turning to `N[C@@H]1c2cccnc2CC12CCN(c1ncc(Sc3cccnc3C(F)(F)F)c3nccn13)CC2` [Example 34, (S)-1′-(8-((2-(Trifluoromethyl)pyridin-3-yl)thio)imidazo[1,2-c]pyrimidin-5-yl)-5,7-dihydro spiro[cyclopenta[b]pyridine-6,4′-piperidin]-5-amine], the IC50 with KYSE-520 cells is 92.5 nM; in the data set on p-ERK in KYSE-520 cells (Homo sapiens, KYSE-520, 2 h), 5.4 nM; in data set [1], 2.8 nM.
Taken in the same sequence, the figures for `Nc1nccc(Sc2cnc(N3CCC4(CC3)Cc3ncccc3[C@H]4N)n3ccnc23)c1Cl` [Example 27, (S)-1′-(8-((2-Amino-3-chloropyridin-4-yl)thio)imidazo[1,2-c]pyrimidin-5-yl)-5,7-dihydrospiro[cyclopenta[b]pyridine-6,4′-piperidin]-5-amine] were 31.5 nM, 8 nM and 1.7 nM.
With `Cc1nc(N2CCC3(CC2)CO[C@@H](C)[C@H]3N)n2ccnc2c1-c1cccc(Cl)c1Cl` (single isomer, unassigned) [The atropisomer with a RT of 1.495 minutes in Examples 3 and 4], the exposure (AUC) is 3130 ± 300 ng·h/mL in data set [2] (male, SD, plasma, IV 1 mg/kg) and 12500 ± 2470 ng·h/mL in data set [2] (male, SD, plasma, PO 5 mg/kg). In addition, the clearance in data set [2] (male, SD, plasma, IV 1 mg/kg, read-out: Clearance CL_obs) worked out at 5.13 ± 0.59 mL/min/kg. The half-life is 5.5 ± 0.59 h in data set [2] (male, SD, plasma, IV 1 mg/kg) and 6.18 ± 0.61 h in data set [2] (male, SD, plasma, PO 5 mg/kg). The bioavailability in data set [2] (male, SD, plasma, PO 5 mg/kg vs IV 1 mg/kg, read-out: Bioavailability F) is 82.6 ± 17.8%. Further, the Cmax in data set [2] (male, SD, plasma, PO 5 mg/kg, read-out: Maximum plasma concentration Cmax) stood at 1220 ± 220 ng/mL. Further, the “Apparent distribution volume Vss_obs” value in data set [2] (IV 1 mg/kg) worked out at 2.03 ± 0.15 L/kg. Further, the IC50 in the data set on KYSE-520 cells stood at 126 nM; in the data set with p-ERK in KYSE-520 cells (Homo sapiens, KYSE-520, 2 h) it was 39 nM; in data set [1], 0.7 nM.
In the case of `C[C@@H]1OCC2(CCN(c3nc(N)c(-c4cccc(Cl)c4Cl)c4nccn34)CC2)[C@@H]1N` [Example 21, (3S,4S)-8-(7-Amino-8-(2,3-dichlorophenyl)imidazo[1,2-c]pyrimidin-5-yl)-3-methyl-2-oxa-8-azaspiro[4.5]decan-4-amine], the IC50 in the data set on KYSE-520 cells is 111 nM; in the data set with p-ERK in KYSE-520 cells (Homo sapiens, KYSE-520, 2 h), 26.6 nM; in data set [1], 3.8 nM.
Take `Nc1nc(N2CCC3(CC2)Cc2ccccc2[C@H]3N)n2ccnc2c1Sc1cccnc1C(F)(F)F` [Example 30, (S)-1′-(7-Amino-8-((2-(trifluoromethyl)pyridin-3-yl)thio)imidazo[1,2-c]pyrimidin-5-yl)-1,3-dihydrospiro[indene-2,4′-piperidin]-1-amine]: the IC50 was found to be 8.9 nM with KYSE-520 cells; 6.1 nM in the data set on p-ERK in KYSE-520 cells (Homo sapiens, KYSE-520, 2 h); 1.4 nM in data set [1].
On the same counts, the results for `Cc1nc(N2CCC3(CC2)Cc2ccccc2[C@H]3N)n2ccnc2c1-c1cccc(Cl)c1Cl` [Example 8, (S)-1′-(8-(2,3-Dichlorophenyl)-7-methylimidazo[1,2-c]pyrimidin-5-yl)-1,3-dihydrospiro[indene-2,4′-piperidin]-1-amine] are 151 nM, 370 nM and 5 nM.
Taken in the same sequence, the figures for `N[C@@H]1CCCC12CCN(c1ncc(Sc3ccnc(F)c3Cl)c3nccn13)CC2` [Example 15, (R)-8-(8-((3-Chloro-2-fluoropyridin-4-yl)thio)imidazo[1,2-c]pyrimidin-5-yl)-8-azaspiro[4.5]decan-1-amine] were 312 nM, 197 nM and 5.6 nM.
